We go through 1 compound from patent US8080237B2, “Use of tellurium compounds for protection from ultra-violet radiation” (priority 2005, dated 2011).

Molecules are shown by their SMILES. Like-named read-outs stand apart in the source and are kept apart here.

One series deals with IL-10. The following applies: Cell Immunol. 176(2):180-5, 1997; J. Natl. Cancer Inst. 88(18):1276-84, 1996; cited from earlier work.
Series [1] concerns IL-10 gene expression in epidermal cells. Kind of series: RT-PCR for IL-10 transcripts in epidermal cells from suction blisters after in vivo UVB irradiation of volunteers' forearms. The settings on record: 3% AS101 in petroleum jelly U.S.P., topical on forearm before UVB; blisters 24 h after UVB exposure; compared with UVB alone; G3PDH as control transcript. The arrangement: species or system human. As to the method:
In normal volunteers, suction blisters were induced by vacuum and heat on normal skin, or on UVB-irradiated skin of volar forearms 24 h after exposure. Single cell suspensions of epidermal cells were prepared by limited trypsinization of the blister roof. Briefly, epidermal sheets were washed in PBS (Biofluids. Roekville. MD) and floated in 0.5% trypsin (United Stares Biochemical Corp. Cleveland. OH) for 45 min al 37° C., transferred to HBSS (Biofluids) containing 0.05 DNase (Sigma Chemical Co. SI. Louis. MO) and 10% heat-inactivated pooled human AB^+ serum (Sigma Chemical Co.) and disaggregated by repeated aspirations and expulsions through a syringe. […]
UVB irradiation in vivo was performed with 4 FS20 fluorescent lamps (Sylvania. Springfield. Va.) that emit wavelengths between 280 and 320 nm with a peak at 313 nm. Light intensity was determined using an IL-770 Germicidal-Erythemal radiometer (international Light Inc. Newburyport. Me.) equipped with a sensor and a 313-nm filter. […]
The frozen pellets of epidermal cells were dissolved by repeated pipetting 800 μl of lysis bufer and transferred to RNase-free Eppendorf tubes containing 500 μg of superparamagnetic polystyrene Dynaheads Oligo(dT)25 (Dynal. Great Neck. N.Y.). […] The concentration of mRNA was measured on a Beckman DU-64 spectrophotometer employing a 5 μl Ultra microcell. […]

For series [2], the system named is interferon (IFN). The following applies: mice; J. Natl. Cancer Inst. 88(18):1276-84, 1996; cited from earlier work.
Series [3] concerns interferon (IFN). The settings on record: humans; Nat. Immun. Cell Growth Regul. 9(3):182-90, 1990; Immunology 70(4):473-7, 1990; cited from earlier work.
Another series relates to rats. Kind of series: Toxicity tests (LD50) in rats. It is filed as in vivo. The settings on record: intravenous and intramuscular administration.

For `Cl[TeH]1(Cl)(Cl)OCCO1.N` [AS101, ammonium trichloro(dioxyethylene-O,O′)tellurate], the “effect on IL-10 at the m-RNA level” value in the series on IL-10 was “inhibit IL-10 at the m-RNA level”. For the same compound, in series [1], the “IL-10 transcription in epidermal cells after UVB (RT-PCR, FIG. 1)” value is listed as “significant decrease of IL-10”. For the same compound, the “activation of interferon (IFN)” value in the series with interferon (IFN) [2] and with interferon (IFN) [3] was “potent activator of interferon” in each case. Also, the “LD50 relative to the immunologically effective dose” value in the series with rats is 500-1000 folds.
